Reference: ChEMBL document CHEMBL5550178, “Synthesis and anticancer properties of novel dolastatin 10 analogs featuring five-membered heterocyclic rings with a linkable group at the C-terminus” (Bioorg Med Chem, 2024)
Non-standard residues stand in square brackets, D forms with d. Residues, ends and D or L forms follow the SMILES beside them. Dolaproine = CO[C@@H]([C@@H]1CCCN1)[C@@H](C)C(=O)O; Dil = CC[C@H](C)[C@H](NC)[C@@H](CC(=O)O)OC; NMeV = CN[C@H](C(=O)O)C(C)C

How the values were obtained:
[1] = Drug uptake in human PC-3 cells assessed as increase in fluorescence intensity at upto 1000 nM by Hoechst nuclear dye based fluorescent microscopic analysis; format: ADME, cell-based; conditions: pc-3, 1 µM
PC-3 [2] = test: Induction of cell cycle arrest in human PC-3 cells assessed as accumulation of cells at G1/G0 phase at 1 nM measured after 4 days by PI staining based flow cytometry analysis (reference value: 67.6%); format: functional; conditions: time 4 day
PC-3 [3] = test: Induction of cell cycle arrest in human PC-3 cells assessed as accumulation of cells at G1/G0 phase at 50 nM measured after 4 days by PI staining based flow cytometry analysis (reference value: 67.6%); format: functional; conditions: time 4 day
PC-3 [4] = test: Induction of cell cycle arrest in human PC-3 cells assessed as accumulation of cells at G1/G0 phase at 1000 nM measured after 4 days by PI staining based flow cytometry analysis (reference value: 67.6%); format: functional; conditions: time 4 day
PC-3 [5] = test: Induction of cell cycle arrest in human PC-3 cells assessed as accumulation of cells at S phase at 1 nM measured after 4 days by PI staining based flow cytometry analysis (reference value: 17.9%); format: functional; conditions: time 4 day
PC-3 [6] = test: Induction of cell cycle arrest in human PC-3 cells assessed as accumulation of cells at S phase at 50 nM measured after 4 days by PI staining based flow cytometry analysis (reference value: 17.9%); format: functional; conditions: time 4 day
PC-3 [7] = test: Induction of cell cycle arrest in human PC-3 cells assessed as accumulation of cells at S phase at 1000 nM measured after 4 days by PI staining based flow cytometry analysis (reference value: 17.9%); format: functional; conditions: time 4 day
PC-3 [8] = test: Induction of cell cycle arrest in human PC-3 cells assessed as accumulation of cells at G2/M phase at 1 nM measured after 4 days by PI staining based flow cytometry analysis (reference value: 10.7%); format: functional; conditions: time 4 day
PC-3 [9] = test: Induction of cell cycle arrest in human PC-3 cells assessed as accumulation of cells at G2/M phase at 50 nM measured after 4 days by PI staining based flow cytometry analysis (reference value: 10.7%); format: functional; conditions: time 4 day
PC-3 [10] = test: Induction of cell cycle arrest in human PC-3 cells assessed as accumulation of cells at G2/M phase at 1000 nM measured after 4 days by PI staining based flow cytometry analysis (reference value: 10.7%); format: functional; conditions: time 4 day
PC-3 [11] = test: Induction of cell cycle arrest in human PC-3 cells assessed as accumulation of cells at G1/G0 phase at 1 nM measured after 6 days by PI staining based flow cytometry analysis (reference value: 79.8%); format: functional; conditions: time 6 day
PC-3 [12] = test: Induction of cell cycle arrest in human PC-3 cells assessed as accumulation of cells at G1/G0 phase at 50 nM measured after 6 days by PI staining based flow cytometry analysis (reference value: 79.8%); format: functional; conditions: time 6 day
PC-3 [13] = test: Induction of cell cycle arrest in human PC-3 cells assessed as accumulation of cells at G1/G0 phase at 1000 nM measured after 6 days by PI staining based flow cytometry analysis (reference value: 79.8%); format: functional; conditions: time 6 day
PC-3 [14] = test: Induction of cell cycle arrest in human PC-3 cells assessed as accumulation of cells at S phase at 1 nM measured after 6 days by PI staining based flow cytometry analysis (reference value: 8.60%); format: functional; conditions: time 6 day
PC-3 [15] = test: Induction of cell cycle arrest in human PC-3 cells assessed as accumulation of cells at S phase at 50 nM measured after 6 days by PI staining based flow cytometry analysis (reference value: 8.60%); format: functional; conditions: time 6 day
PC-3 [16] = test: Induction of cell cycle arrest in human PC-3 cells assessed as accumulation of cells at S phase at 1000 nM measured after 6 days by PI staining based flow cytometry analysis (reference value: 8.60%); format: functional; conditions: time 6 day
PC-3 [17] = test: Induction of cell cycle arrest in human PC-3 cells assessed as accumulation of cells at G2/M phase at 1 nM measured after 6 days by PI staining based flow cytometry analysis (reference value: 9.96%); format: functional; conditions: time 6 day
PC-3 [18] = test: Induction of cell cycle arrest in human PC-3 cells assessed as accumulation of cells at G2/M phase at 50 nM measured after 6 days by PI staining based flow cytometry analysis (reference value: 9.96%); format: functional; conditions: time 6 day
PC-3 [19] = test: Induction of cell cycle arrest in human PC-3 cells assessed as accumulation of cells at G2/M phase at 1000 nM measured after 6 days by PI staining based flow cytometry analysis (reference value: 9.96%); format: functional; conditions: time 6 day
PC-3 [20] = test: Induction of cell cycle arrest in human PC-3 cells assessed as accumulation of cells at G1/G0 phase at 1 nM measured after 8 days by PI staining based flow cytometry analysis (reference value: 73.2%); format: functional; conditions: time 8 day
PC-3 [21] = test: Induction of cell cycle arrest in human PC-3 cells assessed as accumulation of cells at G1/G0 phase at 50 nM measured after 8 days by PI staining based flow cytometry analysis (reference value: 73.2%); format: functional; conditions: time 8 day
PC-3 [22] = test: Induction of cell cycle arrest in human PC-3 cells assessed as accumulation of cells at G1/G0 phase at 1000 nM measured after 8 days by PI staining based flow cytometry analysis (reference value: 73.2%); format: functional; conditions: time 8 day
PC-3 [23] = test: Induction of cell cycle arrest in human PC-3 cells assessed as accumulation of cells at S phase at 1 nM measured after 8 days by PI staining based flow cytometry analysis (reference value: 12.9%); format: functional; conditions: time 8 day
PC-3 [24] = test: Induction of cell cycle arrest in human PC-3 cells assessed as accumulation of cells at S phase at 50 nM measured after 8 days by PI staining based flow cytometry analysis (reference value: 12.9%); format: functional; conditions: time 8 day
PC-3 [25] = test: Induction of cell cycle arrest in human PC-3 cells assessed as accumulation of cells at S phase at 1000 nM measured after 8 days by PI staining based flow cytometry analysis (reference value: 12.9%); format: functional; conditions: time 8 day
PC-3 [26] = test: Induction of cell cycle arrest in human PC-3 cells assessed as accumulation of cells at G2/M phase at 1 nM measured after 8 days by PI staining based flow cytometry analysis (reference value: 13.9%); format: functional; conditions: time 8 day
PC-3 [27] = test: Induction of cell cycle arrest in human PC-3 cells assessed as accumulation of cells at G2/M phase at 50 nM measured after 8 days by PI staining based flow cytometry analysis (reference value: 13.9%); format: functional; conditions: time 8 day
PC-3 [28] = test: Induction of cell cycle arrest in human PC-3 cells assessed as accumulation of cells at G2/M phase at 1000 nM measured after 8 days by PI staining based flow cytometry analysis (reference value: 13.9%); format: functional; conditions: time 8 day

With `CC[C@H](C)[C@@H]([C@@H](CC(=O)N1CCC[C@H]1[C@H](OC)[C@@H](C)C(=O)N[C@@H](Cc1ccccc1)c1nc(CNC(=O)CCC(=O)N2CCN(C(=O)c3ccccc3-c3c4ccc(=[N+](CC)CC)cc-4oc4cc(N(CC)CC)ccc34)CC2)cs1)OC)N(C)C(=O)[C@@H](NC(=O)[C@H](C(C)C)N(C)C)C(C)C` (stereo in doubt) as the molecule, how does the Drug uptake [1] read?
The Drug uptake was “Active”.

Which results are given for `CC[C@H](C)[C@@H]([C@@H](CC(=O)N1CCC[C@H]1[C@H](OC)[C@@H](C)C(=O)N[C@@H](Cc1ccccc1)C(=O)O)OC)N(C)C(=O)[C@@H](NC(=O)[C@@H](NC)C(C)C)C(C)C` (H-[NMeV]V[Dil][Dolaproine]F-OH)?
Activity (PC-3 [2]): 68.9%; Activity (PC-3 [3]): 58.5%; Activity (PC-3 [4]): 44.7%; Activity (PC-3 [5]): 20.8%; Activity (PC-3 [6]): 30.1%; Activity (PC-3 [7]): 47.6%; Activity (PC-3 [8]): 7.89%; Activity (PC-3 [9]): 8.23%; Activity (PC-3 [10]): 3.87%; Activity (PC-3 [11]): 75.5%; Activity (PC-3 [12]): 70.6%; Activity (PC-3 [13]): 44.7%; Activity (PC-3 [14]): 11.8%; Activity (PC-3 [15]): 20.2%; Activity (PC-3 [16]): 47.6%; Activity (PC-3 [17]): 10.6%; Activity (PC-3 [18]): 5.39%; Activity (PC-3 [19]): 3.87%; Activity (PC-3 [20]): 65.8%; Activity (PC-3 [21]): 50.8%; Activity (PC-3 [22]): 27.5%; Activity (PC-3 [23]): 19%; Activity (PC-3 [24]): 32%; Activity (PC-3 [25]): 60.7%; Activity (PC-3 [26]): 17.2%; Activity (PC-3 [27]): 18.4%; Activity (PC-3 [28]): 12.6%
